Results reported in DBAASP.
≈ marks a conversion by molar mass, not a printed value. Blank lines part the entries; values can stand above or below the molecule they belong to.

Legend:
Experiment in all cases: ≥ marks a high value that may be exact or a test limit, other limits are often not marked, values filed in µg/mL are converted to µM
[1] = tested on: Bacillus subtilis ATCC 6051
[2] = tested on: Candida albicans SC5314
[3] = tested on: Candida albicans ATCC 90028
[4] = tested on: Candida parapsilosis ATCC 22019
[5] = tested on: Candida krusei ATCC 6258
[6] = tested on: Pseudomonas aeruginosa PAO1
[7] = tested on: Escherichia coli K-12
[8] = tested on: Staphylococcus aureus ATCC 6538P
[9] = tested on: Klebsiella pneumoniae
[10] = tested on: Staphylococcus aureus NCTC 8325-4
[11] = tested on: Escherichia coli ATCC 25922
[12] = tested on: Klebsiella pneumoniae ATCC 13883
[13] = tested on: Staphylococcus aureus USA 300 LAC
[14] = tested on: Staphylococcus aureus USA 300
[15] = tested on: Candida albicans
[16] = tested on: Aspergillus fumigatus
[17] = tested on: Salmonella enterica subsp. enterica serovar Typhimurium ATCC 14028
[18] = tested on: Enterococcus faecalis ATCC 29212
[19] = tested on: Pseudomonas aeruginosa ATCC 27853
[20] = tested on: Staphylococcus aureus ATCC 25923
[21] = tested on: Escherichia coli
[22] = tested on: Streptococcus pyogenes ATCC 19615
[23] = tested on: Bacillus subtilis

- MIC [1]: 1.88 µM (≈ 3.99 µg/mL)
Compound: CC(C)C[C@H](NC(=O)[C@H](C)N)C(=O)N[C@@H](Cc1c[nH]c2ccccc12)C(=O)N[C@@H](Cc1cnc[nH]1)C(=O)N[C@@H](Cc1cnc[nH]1)C(=O)N[C@@H](CC(C)C)C(=O)N[C@@H](CC(C)C)C(=O)N[C@@H](Cc1cnc[nH]1)C(=O)N[C@@H](Cc1cnc[nH]1)C(=O)N[C@@H](CC(C)C)C(=O)N[C@@H](CC(C)C)C(=O)N[C@@H](Cc1cnc[nH]1)C(=O)N[C@@H](CO)C(=O)N[C@@H](C)C(=O)N[C@@H](Cc1cnc[nH]1)C(=O)N[C@@H](Cc1cnc[nH]1)C(=O)N[C@@H](CC(C)C)C(=O)NCC(N)=O [ALWHHLLHHLLHSAHHLG]

- MIC [2]: 7.23 µM (≈ 16 µg/mL)
- MIC [3]: 14.5 µM (≈ 32 µg/mL)
- MIC [4]: 7.23 µM (≈ 16 µg/mL)
- MIC [5]: 14.5 µM (≈ 32 µg/mL)
Compound: CC[C@H](C)[C@H](NC(=O)CN)C(=O)N[C@@H](Cc1c[nH]c2ccccc12)C(=O)N[C@@H](CCCCN)C(=O)N[C@@H](CCCCN)C(=O)N[C@@H](Cc1c[nH]c2ccccc12)C(=O)N[C@H](C(=O)N[C@@H](CCCCN)C(=O)N[C@@H](CCCCN)C(=O)N[C@H](C(=O)N[C@H](C(=O)N[C@@H](CC(N)=O)C(=O)N[C@H](C(=O)N[C@@H](CC(C)C)C(=O)N[C@@H](CCCCN)C(=O)N[C@@H](CC(N)=O)C(=O)N[C@@H](CC(C)C)C(=O)N[C@@H](Cc1ccccc1)C(N)=O)C(C)C)C(C)C)C(C)C)[C@@H](C)CC [GIWKKWIKKVVNVLKNLF]

- MIC [6]: 1.56 µM (≈ 1.69 µg/mL)
- MIC [7]: 1.56 µM (≈ 1.69 µg/mL)
- MIC [8]: 1.56 µM (≈ 1.69 µg/mL)
- MIC [1]: 1.56 µM (≈ 1.69 µg/mL)
Compound: CC(C)C[C@H](NC(=O)[C@H](CC(C)C)NC(=O)[C@H](CCCCN)NC(=O)[C@H](CC(C)C)NC(=O)[C@H](CC(C)C)NC(=O)[C@H](CCCCN)NC(=O)[C@H](CCCCN)NC(=O)[C@H](CC(C)C)NC(=O)[C@@H](N)CC(C)C)C(N)=O [LLKKLLKLL]

- MIC [2]: 11.3 µM (≈ 32 µg/mL)
- MIC [3]: 22.6 µM (≈ 64 µg/mL)
- MIC [4]: 22.6 µM (≈ 64 µg/mL)
- MIC [5]: 22.6 µM (≈ 64 µg/mL)
Compound: CC[C@H](C)[C@H](NC(=O)CN)C(=O)N[C@@H](Cc1c[nH]c2ccccc12)C(=O)N[C@@H](CCCCN)C(=O)N[C@@H](CCCCN)C(=O)N[C@@H](Cc1c[nH]c2ccccc12)C(=O)N[C@H](C(=O)N[C@@H](CCCCN)C(=O)N[C@@H](CCCCN)C(=O)N[C@@H](Cc1c[nH]c2ccccc12)C(=O)N[C@@H](CC(C)C)C(=O)N[C@@H](CCCCN)C(=O)N[C@@H](CCCCN)C(=O)N[C@@H](CC(C)C)C(=O)N[C@@H](CC(C)C)C(=O)N[C@@H](CCCCN)C(=O)N[C@@H](CCCCN)C(=O)N[C@@H](CC(C)C)C(=O)N[C@@H](Cc1c[nH]c2ccccc12)C(=O)N[C@@H](CCCCN)C(=O)N[C@@H](CCCCN)C(=O)NCC(=O)O)[C@@H](C)CC [GIWKKWIKKWLKKLLKKLWKKG]

- MIC [9]: > 500 µM
- MIC [6]: > 500 µM
- MIC [10]: ≥ 500 µM
- MIC [7]: ≥ 500 µM
Compound: CC[C@H](C)[C@H](N)C(=O)N[C@@H](CCCCN)C(=O)N[C@@H](CCCCN)C(=O)N[C@H](C(=O)N[C@H](C(=O)N[C@@H](CCCCN)C(=O)N[C@@H](CCCCN)C(=O)N[C@H](C(N)=O)[C@@H](C)CC)[C@@H](C)CC)[C@@H](C)CC [IKKIIKKI]

- MIC [11]: 6.2 µM (≈ 8.06 µg/mL)
- MIC [6]: > 50 µM
- MIC [12]: 25 µM (≈ 32.5 µg/mL)
- MIC [13]: 3.1 µM (≈ 4.03 µg/mL)
- MIC [14]: 3.1 µM (≈ 4.03 µg/mL)
Compound: CC[C@H](C)[C@H](NC(=O)[C@H](CCCN=C(N)N)NC(=O)[C@H](CCCN=C(N)N)NC(=O)[C@H](CC(C)C)NC(=O)[C@H](Cc1c[nH]c2ccccc12)NC(=O)[C@H](Cc1c[nH]c2ccccc12)NC(=O)[C@@H](N)Cc1c[nH]c2ccccc12)C(=O)N[C@@H](Cc1c[nH]c2ccccc12)C(N)=O [WWWLRRIW]

- MIC [15]: > 939 µM
- MIC [16]: ≥ 469 µM
Compound: N[C@@H](Cc1ccccc1)C(=O)N1CCC[C@H]1C(=O)N[C@@H](Cc1c[nH]c2ccccc12)C(=O)N[C@@H](Cc1c[nH]c2ccccc12)C(=O)N[C@@H](Cc1c[nH]c2ccccc12)C(=O)N1CCC[C@H]1C(=O)N[C@@H](Cc1ccccc1)C(=O)O [FPWWWPF]

- MIC [11]: 12.5 µM (≈ 15.9 µg/mL)
- MIC [12]: 8.8 µM (≈ 11.2 µg/mL)
- MIC [13]: 2.16 µM (≈ 2.74 µg/mL)
Compound: CC[C@H](C)[C@H](NC(=O)[C@H](CCCCN)NC(=O)[C@H](CCCN=C(N)N)NC(=O)[C@H](CC(C)C)NC(=O)[C@H](Cc1c[nH]c2ccccc12)NC(=O)[C@H](Cc1c[nH]c2ccccc12)NC(=O)[C@H](Cc1c[nH]c2ccccc12)NC(=O)[C@@H](N)Cc1c[nH]c2ccccc12)C(N)=O [WWWWLRKI]

- MIC [17]: 200 µM (≈ 264 µg/mL)
- MIC [18]: 25 µM (≈ 33 µg/mL)
- MIC [19]: 200 µM (≈ 264 µg/mL)
- MIC [20]: 25 µM (≈ 33 µg/mL)
- MIC [12]: ≥ 200 µM
- MIC [21]: 50 µM (≈ 66 µg/mL)
- MIC [22]: ≥ 50 µM
- MIC [23]: ≥ 50 µM
Compound: CC(C)C[C@H](N)C(=O)N[C@@H](Cc1ccc(O)cc1)C(=O)N[C@@H](CCCN=C(N)N)C(=O)N[C@@H](CCCN=C(N)N)C(=O)N[C@@H](CCCN=C(N)N)C(=O)N[C@@H](Cc1ccccc1)C(=O)N[C@H](C(=O)N[C@H](C(=O)NCC(=O)N[C@@H](CCCN=C(N)N)C(N)=O)C(C)C)C(C)C [LYRRRFVVGR]

- MIC [20]: 2.28 µM (≈ 4 µg/mL)
- MIC [6]: 9.12 µM (≈ 16 µg/mL)
- MIC [13]: 4.56 µM (≈ 8 µg/mL)
- MIC [14]: 1.14 µM (≈ 2 µg/mL)
Compound: CC[C@H](C)[C@H](NC(=O)[C@H](CC(=O)O)NC(=O)[C@H](Cc1c[nH]c2ccccc12)NC(=O)[C@H](CC(C)C)NC(=O)[C@@H](N)CCCN=C(N)N)C(=O)N[C@H](C(=O)N[C@@H](CCCN=C(N)N)C(=O)N[C@@H](CCCN=C(N)N)C(=O)N[C@@H](Cc1c[nH]c2ccccc12)C(=O)N[C@H](C(=O)NCC(=O)N[C@@H](Cc1c[nH]c2ccccc12)C(=O)N[C@@H](CC(C)C)C(N)=O)C(C)C)C(C)C [RLWDIVRRWVGWL]
